The values below come from patent US6818391B2, “Glutamate transporters” (The Regents of the University of California, priority 2000, dated 2004).

In experiment [1] the test system is untransfected PC12 cell membranes. As to the kind of experiment: acridine orange fluorescence quenching of untransfected cell membranes. Format: biochemical, rat. As to conditions: 10 mM glutamate. On the procedure: (§1) Native synaptic vesicles acidify during glutamate uptake (Maycox et al. (1988) J. Biol. Chem., 263: 15423). Glutamate presumably serves as a counterion for protons and dissipates ΔΨ, enabling the vacuolar H+-ATPase to generate a larger ΔpH, but cotransport of H+ with glutamate remains an alternative possibility. To determine whether acidification also accompanies glutamate transport by BNPI, we used the quenching of acridine orange fluorescence to measure vesicle pH. Membranes (200 μg of protein) were diluted into 2 ml of 0.3 M sucrose and 10 mM tris-Mops (pH 7.4) containing 4 mM MgSO4 and 5 μM acridine orange and incubated at 37° C. with continuous stirring. Fluorescence was monitored with a Hitachi F4500 spectrofluorimeter at an excitation wavelength of 492 nm and emission of 530 nm. Separate measurements were made with at least three different membrane preparations for wild-type and transfected cells; representative tracings are shown in FIG. 5.

For experiment [2] the test system is unchanged. The experiment is described as follows: background 3H-glutamate uptake by membranes from untransfected PC12 cells. The class given is biochemical, rat. As to conditions: uptake at 5 min. On the procedure: To initiate the transport reaction, we added 10 μl of membranes to 190 μl of SH buffer containing 4 mM KCl, 4 mM MgSO4, 4 mM ATP, and 50 μM 3H-glutamate, with other additions noted in the text and figure legends. […] Background uptake was determined using membranes prepared from untransfected cells that were incubated for the same amount of time at the same temperature. Transport measurements were performed in duplicate with at least two different preparations of membranes. The Km was calculated by averaging the results of two separate determinations.

The next experiment addresses T1, DNPI/VGLUT2 (Rattus norvegicus, UniProt Q9JI12).
T1 construct: To reconstruct the full open reading frame, the missing segment was amplified from rat brain cDNA by PCR; expressed in transfected cells; light membranes prepared from them
T1 sequence (Q9JI12 1-582): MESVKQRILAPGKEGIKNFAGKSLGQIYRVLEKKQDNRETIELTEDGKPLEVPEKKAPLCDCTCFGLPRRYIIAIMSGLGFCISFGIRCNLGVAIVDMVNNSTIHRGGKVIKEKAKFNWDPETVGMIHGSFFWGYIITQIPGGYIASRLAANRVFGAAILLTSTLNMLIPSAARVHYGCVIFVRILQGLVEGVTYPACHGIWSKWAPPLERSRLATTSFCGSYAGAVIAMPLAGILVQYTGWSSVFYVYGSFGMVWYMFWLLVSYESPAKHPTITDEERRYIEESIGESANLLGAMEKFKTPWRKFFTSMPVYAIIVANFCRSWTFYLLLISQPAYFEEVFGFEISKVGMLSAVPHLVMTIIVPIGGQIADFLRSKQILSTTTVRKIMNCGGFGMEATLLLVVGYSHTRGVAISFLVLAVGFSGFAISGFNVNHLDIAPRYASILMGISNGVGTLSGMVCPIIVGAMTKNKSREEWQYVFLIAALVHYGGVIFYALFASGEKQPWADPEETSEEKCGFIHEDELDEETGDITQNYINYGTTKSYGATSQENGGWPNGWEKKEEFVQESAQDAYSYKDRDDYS
The experiment is described as follows: 3H-L-glutamate uptake by membranes from PC12 cells expressing DNPI/VGLUT2. The class given is biochemical. The method, then: PC12 cells were grown in Dulbecco's modified Eagle's medium containing 10% equine serum, 5% calf serum and transfected by electroporation with the rat DNPI/VGLUT2 cDNA subcloned in the pcDNA3 vector containing an […] (Krantz et al. (2000) J. Cell Biol. 149). Stable transformants were selected for resistance to the neomycin analog G418 (500 μg/ml) and screened by immunofluorescence with the DNPI antibody, resulting in the identification of two independent clones with more than 80% of the cells expressing DNPI.
For membrane preparation, untransfected and DNPI-expressing PC12 cells were grown on 15 cm plates, washed with calcium- and magnesium-free PBS, collected in 0.32 M sucrose/10 mM HEPES-KOH, pH 7.4 (SH buffer) containing protease inhibitors (2 μg/ml leupeptin, 1 μg/ml pepstatin, 1 μg/ml E64, 0.2 mM diisopropylfluorphosphate, 2 μg/ml aprotinin, and 1.25 mM MgEGTA), homogenized using a ball bearing device and the homogenate sedimented at 1000 g for 5 min to remove nuclei and debris. The supernatant was then sedimented at 27,000 g for 35 min to remove heavier membranes. The remaining light membranes including small synaptic-like microvesicles were then sedimented at 210,000 g for 1 hour. The pellet was resuspended in SH buffer with protease inhibitors at ˜10 mg protein/ml.
To initiate the transport reaction, 20 μl membranes (˜200 μg protein) were added to 180 μl SH buffer containing 4 mM KCl, 4 mM MgSO4, […], and 100 μM ^3H-L-glutamate, with other additions noted in the text and figure legends. The reaction mixture was incubated at 29° C. for varying intervals, uptake was terminated by rapid filtration through Supor-200 membranes (Gelman) and the filters were washed rapidly four times with 1.5 ml cold 0.155 M potassium tartrate/10 mm HEPES-KOH, pH 7.4 before measuring the bound radioactivity by scintillation counting in 3 ml Cytoscint (ICN). Uptake specifically mediated by DNPI/VGLUT2 was determined by subtracting the background uptake of untransfected cell membranes from the uptake by transfected cell membranes. To examine the chloride dependence of transport, varying proportions of 0.14 M K gluconate and 0.14 M KCl were mixed in the standard reaction buffer (without sucrose) to vary the chloride concentration and maintain constant osmolarity. The ionophores nigericin and valinomycin used in FIG. 13E were prepared as 200× stock solutions in ethanol. The final ethanol concentration in the reaction mixture was 1%.

Another experiment deals with T2, BNPI (VGLUT1) (Rattus norvegicus, UniProt Q62634).
T2 construct: expressed in transfected cells; light membranes prepared from them
T2 sequence (Q62634 1-560): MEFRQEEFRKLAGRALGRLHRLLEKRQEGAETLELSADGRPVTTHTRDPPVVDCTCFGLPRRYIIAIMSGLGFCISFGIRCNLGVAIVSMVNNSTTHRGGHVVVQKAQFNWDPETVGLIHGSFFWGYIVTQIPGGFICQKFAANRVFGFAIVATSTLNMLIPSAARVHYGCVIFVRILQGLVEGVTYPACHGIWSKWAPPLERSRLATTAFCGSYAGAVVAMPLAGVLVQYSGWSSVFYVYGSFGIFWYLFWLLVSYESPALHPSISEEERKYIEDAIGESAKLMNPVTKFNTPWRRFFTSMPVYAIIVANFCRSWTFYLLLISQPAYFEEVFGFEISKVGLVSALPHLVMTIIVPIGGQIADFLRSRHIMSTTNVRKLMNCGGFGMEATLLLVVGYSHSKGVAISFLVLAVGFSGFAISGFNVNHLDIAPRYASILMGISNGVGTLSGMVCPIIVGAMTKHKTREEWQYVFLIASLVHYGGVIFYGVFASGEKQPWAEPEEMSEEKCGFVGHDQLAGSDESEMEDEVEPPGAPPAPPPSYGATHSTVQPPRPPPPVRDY
The experiment is described as follows: acridine orange fluorescence quenching (vesicle acidification) of BNPI-expressing membranes. Format: biochemical. The settings on record: for acidification of BNPI-expressing versus control membranes: 90 mM chloride (KCl). The method, then: as §1

Several values for one entry are separate records, joined by “and”; a condition that tells them apart may be missing. Equal entries are not always repeated. Entries after “also recorded” stand apart in the source; their conditions may differ.

As usually defined, the Km is the substrate concentration at which the rate is half of its maximum. As for `N[C@@H](CCC(=O)O)C(=O)O` [L-Glutamate], the “effect on acidification produced by chloride in nontransfected cell membranes” value in experiment [1] is reported as “had no effect”. Further, in experiment [2], the “effect on background glutamate uptake by untransfected cell membranes” value was “had little effect”. At DNPI/VGLUT2 (10 mM, uptake at 5 minutes), the “inhibition of DNPI-mediated 3H-L-glutamate uptake” value is “markedly inhibits”. For the same molecule, at DNPI/VGLUT2 (initial rate at 1 minute, 0.03-10 mM L-glutamate, Lineweaver-Burke), the Km was 4.7 mM and ~5 mM. The “acidification (lumenal pH) of membranes expressing BNPI” value on BNPI (VGLUT1) (10 mM glutamate, with ATP and 4 mM KCl) is reported as “reduced the lumenal pH; also recorded: acidifies membranes expressing BNPI”. Moreover, the “effect on rate of chloride-dependent acidification of BNPI membranes” value on BNPI (VGLUT1) (10 mM, KCl 20, 50, 140 mM) is “reduces the rate of acidification”. The “effect on acidification of BNPI-expressing membranes by chloride” value on BNPI (VGLUT1) (10 mM, listed as Glutamate) was “blocks this chloride conductance; also recorded: reduces the acidification”; on BNPI (VGLUT1) (10 mM, listed as glutamate), “decreased the acidification produced by chloride”.

In the case of `Cl` [chloride], at DNPI/VGLUT2 (140 mM chloride), the “specific 3H-L-glutamate uptake by DNPI at high chloride” value is given as “little or no specific uptake is detectable”. Further, the “chloride concentration for maximal 3H-L-glutamate uptake by DNPI” value at DNPI/VGLUT2 (uptake at 5 minutes) is 2 to 10 mM and ~2 mM. In addition, the “acidification of BNPI-expressing versus control membranes” value is listed as “produces more acidification” on BNPI (VGLUT1) and “considerably greater” on BNPI (VGLUT1) (listed as KCl).
